Assay [1] concerns Amphibalanus improvisus. The assay is described as follows: Reversal of antifouling activity in Balanus improvisus assessed as inhibition of cyprid larvae settlement at 10 uM after 48 hrs measured after transferring to fresh sea water. The class given is functional, organism-based.
The target in assay [2] is T1, 5-hydroxytryptamine receptor 2C (Homo sapiens) (UniProt P28335).
T1 sequence (whole entry): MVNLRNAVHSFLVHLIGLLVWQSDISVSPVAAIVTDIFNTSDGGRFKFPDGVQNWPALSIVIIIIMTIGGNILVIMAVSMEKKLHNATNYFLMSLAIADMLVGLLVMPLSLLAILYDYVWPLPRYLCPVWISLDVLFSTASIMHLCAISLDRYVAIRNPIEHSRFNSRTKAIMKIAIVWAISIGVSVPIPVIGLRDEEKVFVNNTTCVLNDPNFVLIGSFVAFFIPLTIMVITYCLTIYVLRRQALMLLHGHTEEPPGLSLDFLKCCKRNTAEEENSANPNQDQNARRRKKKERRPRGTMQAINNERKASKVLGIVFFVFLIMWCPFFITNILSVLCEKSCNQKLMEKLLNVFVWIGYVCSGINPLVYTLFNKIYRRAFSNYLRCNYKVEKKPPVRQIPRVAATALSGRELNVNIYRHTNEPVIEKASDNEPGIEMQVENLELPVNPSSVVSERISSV
The assay is described as follows: Binding affinity to human 5HT2C receptor expressed in HEK293 cells. Format: cell-based.

The target in assay [3] is 5-hydroxytryptamine receptor 4 (Homo sapiens) (UniProt Q13639). The assay is described as follows: Binding affinity to human 5HT4 receptor expressed in HEK293 cells. Format: cell-based.
5-hydroxytryptamine receptor 4 (Homo sapiens), sequence (Q13639 whole entry): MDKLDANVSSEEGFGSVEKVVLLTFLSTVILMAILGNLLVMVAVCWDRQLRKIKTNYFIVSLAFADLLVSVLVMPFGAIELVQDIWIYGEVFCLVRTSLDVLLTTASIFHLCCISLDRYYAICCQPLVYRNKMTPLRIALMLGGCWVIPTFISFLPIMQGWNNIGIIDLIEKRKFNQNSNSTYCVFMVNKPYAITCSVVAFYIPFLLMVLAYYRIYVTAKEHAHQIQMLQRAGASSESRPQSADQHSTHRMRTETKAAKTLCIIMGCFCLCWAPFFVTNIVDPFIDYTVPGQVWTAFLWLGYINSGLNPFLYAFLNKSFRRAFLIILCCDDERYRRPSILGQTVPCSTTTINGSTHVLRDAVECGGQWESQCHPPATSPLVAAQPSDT
Assay [4] addresses 5-hydroxytryptamine receptor 2A (Homo sapiens) (UniProt P28223). In words: Binding affinity to human 5HT2A receptor expressed in HEK293 cells. The class given is cell-based.
Assay [5] deals with Amphibalanus improvisus. In words: Antifouling activity in Balanus improvisus assessed as inhibition of cyprid larvae settlement. Format: functional, organism-based.
Assay [6] has as its target 5-hydroxytryptamine receptor 4 (Homo sapiens) (UniProt Q13639). In words: Binding affinity to human 5HT4 receptor expressed in HEK293 cells below 10 uM. Format: cell-based.

Each structure is given as a SMILES string. The source made the active and inactive calls. No cut-off for these calls is given here.

5-hydroxytryptamine receptor 2A (Homo sapiens), sequence (P28223 whole entry): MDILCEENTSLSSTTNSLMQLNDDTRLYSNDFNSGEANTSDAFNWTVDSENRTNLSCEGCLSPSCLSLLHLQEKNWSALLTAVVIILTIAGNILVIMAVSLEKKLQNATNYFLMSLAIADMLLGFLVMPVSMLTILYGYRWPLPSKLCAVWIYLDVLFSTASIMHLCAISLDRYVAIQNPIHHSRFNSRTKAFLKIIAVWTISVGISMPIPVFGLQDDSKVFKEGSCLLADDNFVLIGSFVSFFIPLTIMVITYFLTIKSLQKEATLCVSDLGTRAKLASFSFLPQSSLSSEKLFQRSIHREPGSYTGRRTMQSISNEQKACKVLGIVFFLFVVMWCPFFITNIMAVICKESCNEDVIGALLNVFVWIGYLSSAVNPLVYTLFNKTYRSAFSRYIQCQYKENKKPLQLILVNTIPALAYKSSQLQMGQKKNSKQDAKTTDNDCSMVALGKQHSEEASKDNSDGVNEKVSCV

In general, EC50 refers to the midpoint of the concentration-response curve. `N=C(N)NCCC[C@@H]1NC(=O)C(C(O)(c2c[nH]c3cc(Br)ccc23)c2c(Br)ccc3c(=O)o[nH]c23)NC1=O` (stereo partly specified): in the assay on Amphibalanus improvisus [1], the result was Active. In addition, the outcome in assay [2], in assay [3] and in assay [4] was inactive. Also, in the assay with Amphibalanus improvisus [5], the EC50 stood at 15 nM.
On to `N=C(N)NCCC[C@@H]1NC(=O)C(Cc2c[nH]c3cc(Br)ccc23)NC1=O` (stereo partly specified), for which the outcome in assay [6] was Active.
